According to patent publication US20150362482A1 (priority 2013, published 2015):

What was measured:
Assay type in all cases: cell-based, mouse
GABARA = tested on: GABARA
iGluR = tested on: iGluR
networked ESN cultures = tested on: networked ESN cultures
ESNs = tested on: ESNs

In the case of `NCc1cc(=O)[nH]o1` [muscimol], the agonist-induced current (GABARA) is reported as “large desensitizing Cl-current”.

In the case of `N[C@@H](CCC(=O)O)C(=O)O` [glutamate], the agonist-induced current (iGluR) is reported as “multiphasic inward current”.

With `Nc1ccncc1N` [3,4-DAP, 3,4-diaminopyridine] the “network behaviour in simultaneous dual intracellular recordings” value (networked ESN cultures) was “rapid transition to a synchronized bursting behavior”.

For `NC1=N[C@H](O)[C@H]2[C@H]3O[C@]4(O)O[C@@H]([C@@H](O)[C@@]2(N1)[C@@H]4O)[C@]3(O)CO` [TTX, tetrodotoxin], the excitatory post-synaptic currents (ESNs) was “blocked”.

With `NCCCC(=O)O` [GABA] the “effect on spontaneous network activity” value (networked ESN cultures) was “silenced spontaneous network activity”.
